# Results: ChEMBL document CHEMBL1133821, “Synthesis and antiinflammatory, analgesic activity of 3,3'-(1,2-ethanediyl)-bis[2-aryl-4-thiazolidinone] chiral compounds. Part 10” (Bioorg Med Chem Lett, 2001)
# Assays:
# Rattus norvegicus [1] = experiment: Reaction time in Hot plate test at a dose of 100 mg/kg perorally in rats after 60 min; format: functional; settings: route oral
# Rattus norvegicus [2] = experiment: Percent Edema variation in Carrageenan-induced paw edema test at a dose of 100 mg/kg perorally in rats after 60 min; format: functional; settings: route oral
# Rattus norvegicus [3] = experiment: Animals with Hyperemia in Carrageenan-induced paw edema test at a dose of 100 mg/kg perorally in rats; format: functional; settings: route oral
# [4] = Peroral dose causing 50% death of the mice population; format: ADME, organism-based; settings: mouse, in vivo, po
# Rattus norvegicus [5] = experiment: Reaction time in Hot plate test at a dose of 100 mg/kg perorally in rats after 180 min; format: functional; settings: route oral
# Rattus norvegicus [6] = experiment: Analgesic activity was determined using acetic acid writing test at a dose of 100 mg/kg perorally in rats.; format: functional; settings: route oral
# Rattus norvegicus [7] = experiment: Percent Edema variation in Carrageenan-induced paw edema test at a dose of 100 mg/kg perorally in rats after 180 min (p<0.01); format: functional; settings: route oral
# Rattus norvegicus [8] = experiment: Reaction time in Hot plate test at a dose of 100 mg/kg perorally in rats after 120 min (p<0.05); format: functional; settings: route oral
# Rattus norvegicus [9] = experiment: Animals with Ulcers in Carrageenan-induced paw edema test at a dose of 100 mg/kg perorally in rats; format: functional; settings: route oral
# Rattus norvegicus [10] = experiment: Percent Edema variation in Carrageenan-induced paw edema test at a dose of 100 mg/kg perorally in rats after 120 min; format: functional; settings: route oral
# Rattus norvegicus [11] = experiment: Number of writhings in Acetic acid Writhing test at a dose of 100 mg/kg perorally in rats; format: functional; settings: route oral
# [12] = Minimum concentration which causes 50% of the Artemia salina larvae to lose mobility; format: ADME, organism-based; settings: in vivo
# Rattus norvegicus [13] = experiment: Reaction time in Hot plate test at a dose of 100 mg/kg perorally in rats after 60 min (p<0.05); format: functional; settings: route oral
# Rattus norvegicus [14] = experiment: Reaction time in Hot plate test at a dose of 100 mg/kg perorally in rats after 120 min; format: functional; settings: route oral
# Rattus norvegicus [15] = experiment: Percent Edema variation in Carrageenan-induced paw edema test at a dose of 100 mg/kg perorally in rats after 180 min; format: functional; settings: route oral
# Rattus norvegicus [16] = experiment: Analgesic activity was determined using acetic acid writing test at a dose of 100 mg/kg perorally in rats.(p<0.01); format: functional; settings: route oral
# Rattus norvegicus [17] = experiment: Percent Edema variation in Carrageenan-induced paw edema test at a dose of 100 mg/kg perorally in rats after 120 min (p<0.001); format: functional; settings: route oral
# Rattus norvegicus [18] = experiment: Percent Edema variation in Carrageenan-induced paw edema test at a dose of 100 mg/kg perorally in rats after 60 min (p<0.001); format: functional; settings: route oral
# Rattus norvegicus [19] = experiment: Percent Edema variation in Carrageenan-induced paw edema test at a dose of 100 mg/kg perorally in rats after 180 min (p<0.001); format: functional; settings: route oral
# Rattus norvegicus [20] = experiment: Reaction time in Hot plate test at a dose of 100 mg/kg perorally in rats after 180 min (p<0.05); format: functional; settings: route oral
# Rattus norvegicus [21] = experiment: Analgesic activity was determined using acetic acid writing test at a dose of 100 mg/kg perorally in rats.(p<0.05); format: functional; settings: route oral
# Rattus norvegicus [22] = experiment: Percent Edema variation in Carrageenan-induced paw edema test at a dose of 100 mg/kg perorally in rats after 120 min (p<0.05); format: functional; settings: route oral
# Rattus norvegicus [23] = experiment: Percent Edema variation in Carrageenan-induced paw edema test at a dose of 100 mg/kg perorally in rats after 60 min (p<0.01); format: functional; settings: route oral
# Rattus norvegicus [24] = experiment: Reaction time in Hot plate test at a dose of 100 mg/kg perorally in rats after 60 min (p<0.01); format: functional; settings: route oral
# Rattus norvegicus [25] = experiment: Analgesic activity was determined using acetic acid writing test at a dose of 100 mg/kg perorally in rats. (p<0.01); format: functional; settings: route oral
# Rattus norvegicus [26] = experiment: Reaction time in Hot plate test at a dose of 100 mg/kg perorally in rats after 120 min (p<0.01); format: functional; settings: route oral
SMILES,Edema variation (Rattus norvegicus [2]),Animals (Rattus norvegicus [3]),LD50 [4],Reaction time (Rattus norvegicus [5]),Reaction time (Rattus norvegicus [8]),Animals (Rattus norvegicus [9]),Edema variation (Rattus norvegicus [10]),No. of writhings (Rattus norvegicus [11]),LC50 [12],Reaction time (Rattus norvegicus [13]),Edema variation (Rattus norvegicus [15]),Reaction time (Rattus norvegicus [20]),further results
COc1ccc(C2SCC(=O)N2CCN2C(=O)CSC2c2ccc(OC)c(F)c2)cc1F (centres undefined),8.6%,20%,> 1000 mg/kg,13.5 s,16.8 s,0%,-23.83%,16.4,> 1000 µg/mL,–,–,–,Reaction time (Rattus norvegicus [1]): 13.4 s; inhibition in vivo at 100 mg/kg (Rattus norvegicus [6]): 20%; Edema variation (Rattus norvegicus [7]): -38.94%
COc1ccc(OC)c([C@H]2SCC(=O)N2CCN2C(=O)CS[C@H]2c2cc(OC)ccc2OC)c1,-12.48%,40%,> 1000 mg/kg,–,–,0%,-13.5%,–,> 1000 µg/mL,–,–,–,Edema variation (Rattus norvegicus [7]): -39.06%
COc1ccc([C@H]2SCC(=O)N2CCN2C(=O)CS[C@H]2c2ccc(OC)c(F)c2)cc1F,22.13%,20%,> 1000 mg/kg,12.5 s,–,40%,25.12%,10.2,> 1000 µg/mL,16.1 s,30.11%,–,Reaction time (Rattus norvegicus [14]): 12.3 s; inhibition in vivo at 100 mg/kg (Rattus norvegicus [16]): 50%
O=C1CS[C@H](c2cccc([N+](=O)[O-])c2)N1CCN1C(=O)CS[C@H]1c1cccc([N+](=O)[O-])c1,–,40%,> 1000 mg/kg,–,19.4 s,0%,–,17.8,> 1000 µg/mL,17.1 s,–,22 s,Edema variation (Rattus norvegicus [17]): -67.3%; Edema variation (Rattus norvegicus [18]): -83.3%; inhibition in vivo at 100 mg/kg (Rattus norvegicus [6]): 13%; Edema variation (Rattus norvegicus [19]): 21.11%
O=C1CSC(c2ccc(Cl)c(Cl)c2)N1CCN1C(=O)CSC1c1ccc(Cl)c(Cl)c1 (centres undefined),14.04%,40%,> 1000 mg/kg,–,18.4 s,0%,–,15.2,> 1000 µg/mL,20 s,-27.48%,19.8 s,inhibition in vivo at 100 mg/kg (Rattus norvegicus [21]): 24%; Edema variation (Rattus norvegicus [22]): -31.41%
O=C1CSC(c2cccc([N+](=O)[O-])c2)N1CCN1C(=O)CSC1c1cccc([N+](=O)[O-])c1 (centres undefined),–,40%,> 1000 mg/kg,–,–,0%,-0.31%,–,> 1000 µg/mL,–,23.43%,–,Edema variation (Rattus norvegicus [23]): -35.52%
Cc1cccc(C2SCC(=O)N2CCN2C(=O)CSC2c2cccc(C)c2)c1 (centres undefined),43.41%,20%,> 1000 mg/kg,–,–,0%,-0.13%,–,> 1000 µg/mL,–,-23.6%,–,–
COc1ccc(C2SCC(=O)N2CCN2C(=O)CSC2c2ccc(OC)c(OC)c2)cc1OC (centres undefined),-2.13%,20%,> 1000 mg/kg,–,–,0%,–,9.6,> 1000 µg/mL,–,–,16.8 s,Reaction time (Rattus norvegicus [24]): 30.4 s; inhibition in vivo at 100 mg/kg (Rattus norvegicus [25]): 53%; Edema variation (Rattus norvegicus [19]): -76.62%; Edema variation (Rattus norvegicus [22]): -30.13%; Reaction time (Rattus norvegicus [26]): 26.7 s
O=C1CS[C@H](c2ccc(Cl)c(Cl)c2)N1CCN1C(=O)CS[C@H]1c1ccc(Cl)c(Cl)c1,-61.12%,40%,> 1000 mg/kg,–,22.5 s,0%,-61.1%,4.6,> 1000 µg/mL,18.7 s,-61.2%,22.9 s,inhibition in vivo at 100 mg/kg (Rattus norvegicus [16]): 77%
COc1ccc(OC)c(C2SCC(=O)N2CCN2C(=O)CSC2c2cc(OC)ccc2OC)c1 (centres undefined),33.55%,40%,> 1000 mg/kg,–,–,0%,-24.62%,–,> 1000 µg/mL,–,-70.22%,–,–
COc1cccc(C2SCC(=O)N2CCN2C(=O)CSC2c2cccc(OC)c2)c1 (centres undefined),–,20%,> 1000 mg/kg,12.9 s,–,0%,-26.3%,19.5,> 1000 µg/mL,–,-18.31%,–,Reaction time (Rattus norvegicus [1]): 13.4 s; inhibition in vivo at 100 mg/kg (Rattus norvegicus [6]): 4%; Edema variation (Rattus norvegicus [23]): -34.4%; Reaction time (Rattus norvegicus [14]): 13 s
COc1ccc(C2SCC(=O)N2CCN2C(=O)CSC2c2ccc(OC)cc2)cc1 (centres undefined),39.52%,20%,> 1000 mg/kg,13.9 s,–,0%,-26.62%,15.8,> 1000 µg/mL,–,–,–,inhibition in vivo at 100 mg/kg (Rattus norvegicus [21]): 22%; Reaction time (Rattus norvegicus [1]): 11.2 s; Edema variation (Rattus norvegicus [19]): -64.98%; Reaction time (Rattus norvegicus [14]): 15.1 s
